Broadly, the IC50 is the concentration needed to halve the response being measured.

Results on three molecules are retold here after ChEMBL document CHEMBL1141799, “Cyanopeptolin 954, a chlorine-containing chymotrypsin inhibitor of Microcystis aeruginosa NIVA Cya 43” (J Nat Prod, 2005).

The species entered for experiment [1] is Bos taurus. Kind of experiment: Inhibition of bovine trypsin at 17.3 uM.
Experiment [2] is filed under the species Bos taurus. Kind of experiment: Inhibition of bovine trypsin at 11.4 uM.
A short description of experiment [3]: Inhibition of bovine chymotrypsin. Further details: species or system Bos taurus.
Experiment [4] in a line: Inhibition of chymotrypsin.

The source made the active and inactive calls. The rule behind the calls is not given here.

Take `CC(=O)N[C@@H](CCC(N)=O)C(=O)N[C@@H]1C(=O)N[C@@H](CC(C)C)C(=O)N[C@H]2CC[C@@H](O)N(C2=O)[C@@H](Cc2ccccc2)C(=O)N(C)[C@@H](Cc2ccc(O)cc2)C(=O)N[C@@H](C(C)C)C(=O)O[C@@H]1C` [NOSTOPEPTIN BN920]: the outcome in the experiment filed under Bos taurus [1] and in the experiment filed under Bos taurus [2] was inactive. This molecule also yielded an IC50 in experiment [3] of 31.2 nM.
In experiment [4], `CC[C@H](C)[C@@H]1NC(=O)[C@H](Cc2ccc(O)cc2)N(C)C(=O)[C@H](Cc2ccccc2)N2C(=O)[C@H](CC[C@H]2O)NC(=O)[C@H](Cc2ccccc2)NC(=O)[C@@H](NC(=O)[C@@H](O)COP(=O)(O)O)[C@@H](C)OC1=O` [MICROPEPTIN T 20] returned an IC50 of 2.5 nM.
On to `CC(=O)N[C@@H](CCC(N)=O)C(=O)N[C@@H]1C(=O)N[C@@H](CC(C)C)C(=O)N[C@H]2CC[C@@H](O)N(C2=O)[C@@H](Cc2ccccc2)C(=O)N(C)[C@@H](Cc2ccc(O)c(Cl)c2)C(=O)N[C@@H](C(C)C)C(=O)O[C@H]1C` [CYANOPEPTOLIN 954], for which the outcome in the experiment filed under Bos taurus [1] and in the experiment filed under Bos taurus [2] was inactive. In experiment [3], this molecule gave an IC50 of 44.5 nM.
